Assay results from US5453533A (priority 1994, dated 1995).
Entries after “also recorded” stand apart in the source; their conditions may differ. Read-outs that look alike come from different tables or passages of the source.

Key:
[1] = molecular target: T1, type B (B/Memphis/3/89) neuraminidase (Influenza B virus (B/Memphis/3/89), UniProt P16199); type: biochemical; details: read-out: IC50, Fetuin substrate, B/Mem/89
[2] = molecular target: T1, type B (B/Memphis/3/89) neuraminidase; type: biochemical; details: read-out: IC50, MUN substrate, B/Mem/89
[3] = molecular target: T2, N2 (A/Tokyo/67) neuraminidase (Influenza A virus, UniProt P06820); assay: biochemical; design: species or system influenza A virus (A/Tokyo/67)
T2 sequence (P06820 whole entry, looked up): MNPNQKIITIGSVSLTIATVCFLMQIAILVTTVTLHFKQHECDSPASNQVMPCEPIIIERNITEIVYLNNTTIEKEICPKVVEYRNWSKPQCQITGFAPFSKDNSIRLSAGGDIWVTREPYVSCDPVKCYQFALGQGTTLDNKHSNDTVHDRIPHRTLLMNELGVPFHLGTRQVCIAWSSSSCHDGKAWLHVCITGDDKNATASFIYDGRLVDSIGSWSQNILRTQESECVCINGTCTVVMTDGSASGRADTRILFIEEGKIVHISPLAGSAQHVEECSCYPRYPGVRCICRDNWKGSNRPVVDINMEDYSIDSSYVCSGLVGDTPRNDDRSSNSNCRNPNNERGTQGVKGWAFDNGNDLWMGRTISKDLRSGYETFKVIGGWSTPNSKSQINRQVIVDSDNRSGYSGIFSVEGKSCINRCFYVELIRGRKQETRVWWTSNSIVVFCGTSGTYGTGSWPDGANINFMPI

[4] = molecular target: T2, N2 (A/Tokyo/67) neuraminidase; assay: biochemical; design: species or system influenza A virus (A/Tokyo/67); remark: listed apart in the source
[5] = molecular target: N2 (Influenza A virus (A/Tokyo/3/1967(H2N2)), UniProt P06820); type: binding
Sequence of N2 (Influenza A virus (A/Tokyo/3/1967(H2N2)), UniProt P06820) (P06820 whole entry, looked up): as above

influenza NA [6] = type: biochemical, influenza virus type A or type B
influenza neuraminidase = details: cited from earlier work
influenza B = details: cited from earlier work
influenza subtype A = details: cited from earlier work
influenza A neuramidase = details: Taylor & von Itzstein, 1994; cited from earlier work
Influenza NA [7] = details: trisaccharide substrate; cited from earlier work
[8] = whole virus, 50% inhibition of NA activity, MUN, 15 minutes at 37° C, pH 6.0

T1 sequence (P16199 whole entry, looked up): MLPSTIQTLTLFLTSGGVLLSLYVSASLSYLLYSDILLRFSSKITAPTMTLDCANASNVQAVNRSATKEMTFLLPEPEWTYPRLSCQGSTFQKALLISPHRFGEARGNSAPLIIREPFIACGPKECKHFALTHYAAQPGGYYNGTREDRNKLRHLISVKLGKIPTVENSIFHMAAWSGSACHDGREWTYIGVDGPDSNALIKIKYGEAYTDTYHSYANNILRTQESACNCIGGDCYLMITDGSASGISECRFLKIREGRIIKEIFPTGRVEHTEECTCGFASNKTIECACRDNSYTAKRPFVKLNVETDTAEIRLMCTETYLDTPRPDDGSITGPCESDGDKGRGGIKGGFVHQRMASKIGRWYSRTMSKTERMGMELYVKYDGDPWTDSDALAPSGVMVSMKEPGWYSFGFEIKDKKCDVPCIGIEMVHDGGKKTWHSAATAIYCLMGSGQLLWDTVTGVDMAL

Compound | IC50 [1] [mM] | IC50 ([2]; pH 6) [mM] | IC50 [3] [mM] | IC50 [4] [mM] | also measured
CC(=O)Nc1ccc(C(=O)O)cc1NC(=O)C(O)CO (stereo not shown) [Compound 110, 4-(acetylamino)-3-[(2,3-dihydroxypropionyl)amino]benzoic acid] | > 10 | 8 | – | – | –
CC(=O)Nc1ccc(C(=O)O)cc1OC(C)=O [Compound 102, 4-(acetylamino)-3-acetoxybenzoic acid] | 5 | > 10 | 10 | > 10 | –
CC(=O)Nc1c(OC(C)=O)cc(C(=O)O)cc1[N+](=O)[O-] [Compound 104, 3-acetoxy-4-(acetylamino)-5-nitrobenzoic acid] | 5 | 2 | – | – | –
CC(=O)Nc1c(O)cc(C(=O)O)cc1[N+](=O)[O-] [Compound 105, 4-(acetylamino)-3-hydroxy-5-nitrobenzoic acid] | 1 | 0.75 | – | – | binding to N2 [5]: binds strongest to N2; Activity compared with sialic acid (influenza NA [6]): significantly more potent than sialic acid; also recorded: enhanced activity
CC(=O)N[C@H]1[C@H]([C@H](O)[C@H](O)CO)OC(O)(C(=O)O)C[C@@H]1O (stereo partly shown) [sialic acid, N-acetylneuraminic acid, reference compound] | – | – | – | – | IC50 [2, 8]: > 10 mM; Ki (influenza neuraminidase): ~1 mM; IC50 (influenza NA [6]; whole virus screen, MUN and fetuin, read-out: IC50 (modest product inhibitor)): 10 mM
CC(=O)Nc1ccc(C(=O)O)cc1O [Compound 101, 4-(acetylamino)-3-hydroxybenzoic acid] | 10 | > 10 | 10 | > 10 | Change in activity from nitro group alone or phenol OH alone (influenza NA [6]): did not result in significant changes in activity
CC(=O)Nc1c(N)cc(C(=O)O)cc1O.Cl [Compound 106, 3-amino-4-(acetylamino)-5-hydroxybenzoic acid, hydrochloride] | > 10 | 10 | > 10 | > 10 | binding to N2 [5]: bind fairly well
CC(=O)Nc1ccc(C(=O)O)cc1NC(=O)CCCN [Compound 112, 4-(acetylamino)-3-[(4-aminobutanoyl)amino]benzoic acid] | > 10 | > 10 | > 10 | > 10 | –
NC12CC3CC(CC(C3)C1)C2 [amantadine] | – | – | – | – | effect on influenza B (influenza B): no effect on influenza B; effect against influenza A (influenza subtype A): effective only against influenza subtype A
CC(=O)Nc1ccc(C(=O)O)cc1NC(=O)CO [Compound 109, 4-(acetylamino)-3-[(hydroxyacetyl)amino]benzoic acid] | 10 | 3 | > 10 | 4 | –
CC(=O)N[C@H]1[C@H]([C@H](O)[C@H](O)CO)OC(C(=O)O)=C[C@@H]1O [DANA, 2-deoxy-2,3-dehydro-N-acetylneuraminic acid, reference compound] | 0.015 | 0.015 | 0.015 | 0.015 | Ki (influenza neuraminidase; in vitro, influenza neuraminidase): 0.01 mM; Ki (influenza A neuramidase): 0.004 mM
CC(N)C12CC3CC(CC(C3)C1)C2 (stereo not shown) [rimantadine] | – | – | – | – | effect on influenza B (influenza B): no effect on influenza B; effect against influenza A (influenza subtype A): effective only against influenza subtype A
O=C(O)C1=C[C@H](O)[C@@H](NC(=O)C(F)(F)F)[C@H]([C@H](O)[C@H](O)CO)O1 [FANA, 2-deoxy-2,3-dehydro-N-(trifiuoroacetyl)neuraminic acid] | – | – | – | – | in vitro activity compared with DANA (influenza neuraminidase; Palese and Compans, 1976): greater in vitro activity
N-acetyl neuraminyl lactose | – | – | – | – | Km (Influenza NA [7]): ~400 µM
CC(=O)Nc1ccc(C(=O)O)cc1[N+](=O)[O-] [Compound 107] | – | – | 5 | 5 | IC50 ([1]; whole virus, 50% inhibition of NA activity, fetuin): 5 mM; IC50 [2, 8]: 5 mM; Change in activity from nitro group alone or phenol OH alone (influenza NA [6]): did not result in significant changes in activity
CC(=O)Nc1ccc(C(=O)O)cc1NC(=O)CN [Compound 111, 4-(acetylamino)-3-[(aminoacetyl)amino]benzoic acid] | 5 | – | – | 5 | –
CC(=O)Nc1cc([N+](=O)[O-])c(C(=O)O)c([N+](=O)[O-])c1O [Compound 103, 4-(acetylamino)-3-hydroxy-2,6-dinitrobenzoic acid] | 4 | 1 | – | – | –
CC(=O)Nc1ccc(C(=O)O)cc1N [Compound 108, 4-(acetylamino)-3-aminobenzoic acid] | – | > 20 | > 10 | > 10 | binding to N2 [5]: binds the weakest to N2
